Source: US20230320362A1, “COMPOSITION AND METHOD FOR WEED AND GRASS CONTROL” (United Industries Corporation, priority 2022, published 2023)

How the values were obtained:
weed or grass = settings: Table 1 Notes; cited from earlier work
[1] = test system: Crimson Clover, Annual Rye Grass, Rescue Grass; assay: Field experiment: early burndown and herbicidal efficacy of glufosinate + diquat compositions (FIGS. 3A-3C); type: in vivo; settings: burndown agent combined with glufosinate
Text: “Herbicidal efficacy” or “herbicidal effectiveness,” as used herein, refers to any observable measure of control of weed or grass growth, which can include one or more of the actions of (1) killing, (2) inhibiting growth, reproduction or proliferation, and (3) removing, destroying, or otherwise diminishing the occurrence and activity of weeds or grasses. The herbicidal effectiveness data set forth herein report “control” as a percentage following a standard procedure in the art which reflects a visual assessment of plant mortality and growth reduction by comparison with untreated plants, made by technicians specially trained to make and record such observations. In all cases, a single technician makes all assessments of percent control within any one experiment or trial.
Various examples and comparatives examples of the weed control compositions and RTU solutions were prepared according to Table 2. The RTU solutions were applied to test fields with various types of weeds and grasses, and the burndown effect and/or the long-term efficacy of the test RTU solutions are observed and compared. Equipment, sprayer, and selected operating conditions for application of the RTU compositions to the test areas are provided in Table 3.
All field experiments were set in 1 m^2 plots replicated four times in a randomized complete block design with appropriate industry standards and untreated controls. The example compositions and comparative example compositions according to Table 2 were tested in the field experiments. […] Plots were sprayed once, and then assessed for speed to visible activity, percent (%) weed control, and percent residual control over time to determine burndown activity, speed to kill, extended control and residual pre-emergent activity.

Row | Compound | residual activity (in words) (weed or grass) | also measured
1 | O=C(O)c1cc(Oc2ccc(C(F)(F)F)cc2Cl)ccc1[N+](=O)[O-] [Acifluorfen] | No residual activity | 
2 | Nc1c([N+](=O)[O-])ccc(Oc2ccccc2)c1Cl [Aclonifen] | Moderate residual activity | 
3 | CCCCCCCCC(=O)O.N [Ammonium nonanoate] | Top kill, no residual activity | burndown compared to glufosinate alone [1]: enhanced burndown compared to glufosinate alone; effectiveness as burndown agent, ammonium nonanoate versus Diquat [1]: superior effectiveness compared to Diquat
4 | Cc1ccc(C(=O)COc2c(C(=O)c3ccc(Cl)c(C)c3Cl)c(C)nn2C)cc1 [Benzafenap] |  | residual activity (weed or grass): 38 days residual activity
5 | CS(=O)(=O)c1ccc(C(=O)C2=C(Sc3ccccc3)C3CCC(C3)C2=O)c(Cl)c1 (stereo not drawn) [Benzobicyclon] |  | residual activity (weed or grass): 14 days residual activity
6 | COC(=O)c1cc(Oc2ccc(Cl)cc2Cl)ccc1[N+](=O)[O-] [Bifenox] | Six to eight weeks residual activity | 
7 | C=CCOC(=O)C(C)(C)OC(=O)c1cc(-n2c(=O)cc(C(F)(F)F)n(C)c2=O)ccc1Cl [Butafenacil] | No residual activity | 
8 | CCCCCCCC(=O)O [Caprylic/octanoic acid] | No residual activity | 
9 | CCOC(=O)C(Cl)Cc1cc(-n2nc(C)n(C(F)F)c2=O)c(F)cc1Cl (stereo not drawn) [Carfentrazone-ethyl] | No residual activity | 
10 | CCOC(=O)/C(Cl)=C/c1cc(N2C(=O)C3=C(CCCC3)C2=O)ccc1Cl [Cinidon-ethyl] | No residual activity | 
11 | c1cc[n+]2c(c1)-c1cccc[n+]1CC2 [Diquat] | No residual activity | burndown compared to glufosinate alone [1]: enhanced burndown compared to glufosinate alone
12 | CCOC(=O)COc1cc(-n2ncc(C(F)(F)F)c(C)c2=O)c(F)cc1Cl [Flufenpyr-ethyl] | No residual activity | 
13 | CCCCCOC(=O)COc1cc(N2C(=O)C3=C(CCCC3)C2=O)c(F)cc1Cl [Flumiclorac pentyl] | No residual activity | 
14 | C#CCN1C(=O)COc2cc(F)c(N3C(=O)C4=C(CCCC4)C3=O)cc21 [Flumioxazin] | One to two weeks residual | 
15 | CCOC(=O)COC(=O)c1cc(Oc2ccc(C(F)(F)F)cc2Cl)ccc1[N+](=O)[O-] [Fluoroglycofen-ethyl] | No residual activity | 
16 | COC(=O)CSc1cc(/N=c2\sc(=O)n3n2CCCC3)c(F)cc1Cl [Fluthiacet-methyl] | No residual activity | 
17 | CS(=O)(=O)NC(=O)c1cc(Oc2ccc(C(F)(F)F)cc2Cl)ccc1[N+](=O)[O-] [Fomesafen] |  | residual activity (weed or grass): 12-month residual activity
18 | CP(=O)(O)CCC(N)C(=O)O (stereo not drawn) [Glufosinate] | Kills shoots and roots, short residual activity | 
19 | Cc1cnc(C2=NC(=O)C(C)(C(C)C)N2)c(C(=O)O)c1 (stereo not drawn) [Imazapic] | Four months residual activity | 
20 | CC(C)C1(C)N=C(c2ncccc2C(=O)O)NC1=O (stereo not drawn) [Imazapyr] | Four months residual activity | 

Row | Compound | residual activity (in words) (weed or grass) | also measured
21 | CCc1cnc(C2=NC(C)(C(C)C)C(=O)N2)c(C(=O)O)c1 (stereo not drawn) [Imazethapyr] | Two to three months residual | 
22 | CC(C)N(C(=O)n1cnn(-c2ccc(Cl)cc2Cl)c1=O)c1ccc(F)cc1F [Ipfencarbazone] |  | residual activity (weed or grass): 70 days residual activity
23 | CS(=O)(=O)c1cc(C(F)(F)F)ccc1C(=O)c1cnoc1C1CC1 [Isoxaflutole] | No residual activity | 
24 | CCOC(=O)C(C)OC(=O)c1cc(Oc2ccc(C(F)(F)F)cc2Cl)ccc1[N+](=O)[O-] (stereo not drawn) [Lactofen] |  | residual activity (weed or grass): Very short residual activity (2-3 weeks)
25 | CS(=O)(=O)c1ccc(C(=O)C2C(=O)CCCC2=O)c([N+](=O)[O-])c1 [Mesotrione] |  | residual activity (weed or grass): Limited residual activity (6-15 days)
26 | CC(C)Oc1cc(-n2nc(C(C)(C)C)oc2=O)c(Cl)cc1Cl [Oxadiazon] |  | residual activity (weed or grass): Moderate residual activity (2 months)
27 | CCOc1cc(Oc2ccc(C(F)(F)F)cc2Cl)ccc1[N+](=O)[O-] [Oxyfluorfen] |  | residual (weed or grass): Kills shoots and roots, 30 d residual
28 | CCCCCCCCC(=O)O [Pelargonic acid] | No residual activity | 
29 | CC(C)=C1OC(=O)N(c2cc(OC3CCCC3)c(Cl)cc2F)C1=O [Pentoxazone] | No residual activity | 
30 | CCOC(=O)COc1cc(-c2nn(C)c(OC(F)F)c2Cl)c(F)cc1Cl [Pyraflufen-ethyl] | Burndown activity with no residual | 
31 | Cc1nn(C)c(OCC(=O)c2ccccc2)c1C(=O)c1ccc(Cl)cc1Cl [Pyrazoxyfen] |  | residual activity (weed or grass): 4-15 days residual activity
32 | CC(C)N(C)S(=O)(=O)NC(=O)c1cc(-n2c(=O)cc(C(F)(F)F)n(C)c2=O)c(F)cc1Cl [Saflufenacil] | No residual activity | 
33 | CS(=O)(=O)c1ccc(C(=O)C2C(=O)CCCC2=O)c(Cl)c1 [Sulcotrione] | No residual activity | 
34 | CS(=O)(=O)c1ccc(C(=O)C2C(=O)CCCC2=O)c(Cl)c1COCC(F)(F)F [Tembotrione] |  | residual activity (weed or grass): 14 days residual activity
35 | COC(=O)CCNC(=O)C(C)Sc1cc(-n2c(=O)cc(C(F)(F)F)n(C)c2=O)c(F)cc1Cl (stereo not drawn) [Tiafenacil] | Burndown with no residual activity | 
36 | Cc1c(C(=O)c2cnn(C)c2O)ccc(S(C)(=O)=O)c1C1=NOCC1 [Topramezone] |  | residual activity (weed or grass): 14 days residual activity
37 | C#CCN1C(=O)C(F)(F)Oc2cc(F)c(-n3c(=O)n(C)c(=S)n(C)c3=O)cc21 [Trifludimoxazin] |  | residual activity (weed or grass): Short residual activity of 40 days
38 | Capric/decanoate acid of salt thereof | No residual activity | 
39 | Oxadiargyl | Pre-emergent active | 
